Reference: patent US20180200257A1, “METHODS FOR THE TREATMENT OF INFLAMMATORY DISORDERS” (Galapagos NV, priority 2015, published 2018)

System: subjects with moderately to severely active RA who have an inadequate response to methotrexate (MTX)
Assay: Study 1 (add-on to MTX) - ACR responses (ACR20/50/70)
Format: in vivo, human
Excerpt: The terms “ACR20”, “ACR50” and “ACR70” as used herein are scores which indicate how much a patient's rheumatoid arthritis has improved according to criteria set out by the American College of Rheumatology (ACR). The ACR score represents a percentage. An ACR20 score means that a person's RA has improved by 20%, an ACR50 score means it has improved by 50%, and an ACR70 score means it has improved by 70%. Specifically, to qualify for an ACR20 score, a person with RA must have at least 20% fewer tender joints and at least 20% fewer swollen joints. In addition the patient must show a 20% improvement in at least three of the following five areas: the person's overall (global) assessment of his or her own RA, the physician's global assessment of the person's RA, the person's assessment of his or her own pain, the person's assessment of his or her own physical functioning, and the results of an erythrocyte sedimentation rate or C-reactive protein (CRP) blood test (both of which test for inflammation). ACR50 and ACR70 scores use the same criteria but require 50% and 70% improvement, respectively, (Felson et al., 1993). In the data presented herein the CRP blood test is used.
Double-blind, placebo-controlled add on study in subjects with moderately to severely active RA who have an inadequate response to methotrexate (MTX) (oral or parenteral).
595 subjects randomized to one of 6 dose regimens of Compound 1 (dosed as [Compound 1:HCl:3H2O]) (3 dose levels administered either once or twice daily) or placebo on top of each subject's stable dose of MTX.
Compound 1 (dosed as [Compound 1:HCl:3H2O]) is dosed for twelve weeks once daily (q.d.) (50 mg, 100 mg or 200 mg) or twice daily (b.i.d.) (25 mg, 50 mg or 100 mg); or placebo.
At Week 12, the subjects on placebo who have not achieved 20% improvement in swollen joint count (SJC66) and tender joint count (TJC68) are re-randomized automatically to receive Compound 1 (dosed as a [Compound 1:HCl:3H2O]) either at 100 mg q.d. or 50 mg b.i.d. doses in a blinded fashion; subjects on 50 mg q.d. who have not achieved 20% improvement in SJC66 and TJC68 will be assigned to 100 mg q.d. and subjects on 25 mg b.i.d. that have not achieved a 20% improvement in SJC66 and TJC68 will be assigned to 50 mg b.i.d. Subjects who switch treatment at week 12 are handled as if they discontinued at week 12 for the purpose of statistical analysis, whereas subjects in the other groups will maintain their randomized treatment until Week 24.
The American College of Rheumatology (ACR) composite score, which evaluates clinical improvement relative to an initial assessment, is a commonly accepted efficacy end point for clinical trials in patients with rheumatoid arthritis. The ACR score correspond to a percentage improvement in pre-set parameters, and therefore measures the evolution of the disease in a patient. For example, ACR20 denotes at least 20% improvement in tender and swollen joint counts and in three of the following end points: global assessment by the patient, global assessment by the doctor, C reactive protein (CRP), patient's pain Visual Analogue Scale and Health Assessment Questionnaire Score. The number of swollen joints, ESR and CRP correlate with radiographic progression of joint damage, whereas tender joint counts, as well as global assessments by doctors and patients, and patients' reports of pain, are sensitive to change in clinical outcomes. Physical function, as assessed by the Health Assessment Questionnaire Score, is a potent predictor of the risk of disability in rheumatoid arthritis (Felson and American College of Rheumatology Committee to Reevaluate Improvement Criteria, 2007; Felson et al., 1993).
In particular, the list of parameters used to assess ACR score can be found in the Table XCVI below and the results of the ACR responses at week 12 via either NRI or LOCF are shown in the tables below. The Hommel-corrected p-value for the pairwise comparisons of each group with placebo is shown. […]

[1] = 50 mg q.d., week 2, 12 weeks results
[2] = 50 mg q.d., week 2, 24 weeks results
[3] = 50 mg q.d., week 4, 12 weeks results
[4] = 50 mg q.d., week 4, 24 weeks results
[5] = 50 mg q.d., week 12, 12 weeks results
[6] = 50 mg q.d., week 12, 24 weeks results
[7] = 50 mg q.d., week 16, 24 weeks results
[8] = 50 mg q.d., week 20, 24 weeks results
[9] = 50 mg q.d., week 24, 24 weeks results
[10] = 50 mg q.d., at week 1, 12 weeks results
[11] = 50 mg q.d., at week 1, 24 weeks results
[12] = 50 mg q.d., week 8, 12 weeks results
[13] = 50 mg q.d., week 8, 24 weeks results
[14] = 100 mg q.d., week 2, 12 weeks results
[15] = 100 mg q.d., week 2, 24 weeks results
[16] = 100 mg q.d., week 4, 12 weeks results
[17] = 100 mg q.d., week 4, 24 weeks results
[18] = 100 mg q.d., week 8, 24 weeks results
[19] = 100 mg q.d., week 12, 12 weeks results

O=C(Nc1nc2cccc(-c3ccc(CN4CCS(=O)(=O)CC4)cc3)n2n1)C1CC1 [Compound 1, cyclopropanecarboxylic acid {5-[4-(1,1-dioxo-thiomorpholin-4-ylmethyl)-phenyl]-[1,2,4]triazolo[1,5-a]pyridin-2-yl}-amide]
ACR20 (LOCF) [1]: 39.0%
ACR20 (NRI) [1]: 37.8%
ACR50 (LOCF) [1]: 7.3%
ACR50 (NRI) [1]: 7.3%
ACR70 (LOCF) [1]: 2.4%
ACR70 (NRI) [1]: 2.4%
ACR20 (LOCF) [2]: 39.0%
ACR20 (NRI) [2]: 37.8%
ACR50 (LOCF) [2]: 7.3%
ACR50 (NRI) [2]: 7.3%
ACR70 (LOCF) [2]: 2.4%
ACR70 (NRI) [2]: 2.4%
ACR20 (LOCF) [3]: 45.1%
ACR20 (NRI) [3]: 42.7%
ACR50 (LOCF) [3]: 12.2%
ACR50 (NRI) [3]: 12.2%
ACR70 (LOCF) [3]: 7.3%
ACR70 (NRI) [3]: 7.3%
ACR20 (LOCF) [4]: 45.1%
ACR20 (NRI) [4]: 42.7%
ACR50 (LOCF) [4]: 12.2%
ACR50 (NRI) [4]: 12.2%
ACR70 (LOCF) [4]: 7.3%
ACR70 (NRI) [4]: 7.3%
ACR20 (LOCF) [5]: 59.8%
ACR20 (NRI) [5]: 56.1%
ACR50 (LOCF) [5]: 31.7%
ACR50 (NRI) [5]: 31.7%
ACR70 (LOCF) [5]: 15.9%
ACR70 (NRI) [5]: 15.9%
ACR20 (LOCF) [6]: 59.8%
ACR20 (NRI) [6]: 56.1%
ACR50 (LOCF) [6]: 31.7%
ACR50 (NRI) [6]: 31.7%
ACR70 (LOCF) [6]: 15.9%
ACR70 (NRI) [6]: 15.9%
ACR20 (LOCF) [7]: 59.8%
ACR20 (NRI) [7]: 56.1%
ACR50 (LOCF) [7]: 37.8%
ACR50 (NRI) [7]: 37.8%
ACR70 (LOCF) [7]: 18.3%
ACR70 (NRI) [7]: 18.3%
ACR20 (LOCF) [8]: 61.0%
ACR20 (NRI) [8]: 57.3%
ACR50 (LOCF) [8]: 39.0%
ACR70 (LOCF) [8]: 23.2%
ACR20 (LOCF) [9]: 61.0%
ACR20 (NRI) [9]: 54.9%
ACR50 (LOCF) [9]: 36.6%
ACR70 (LOCF) [9]: 22.0%
ACR20 (LOCF) [10]: 22.0%
ACR20 (NRI) [10]: 22.0%
ACR50 (LOCF) [10]: 2.4%
ACR50 (NRI) [10]: 2.4%
ACR70 (LOCF) [10]: 0.0%
ACR70 (NRI) [10]: 0.0%
ACR20 (LOCF) [11]: 22.0%
ACR20 (NRI) [11]: 22.0%
ACR50 (LOCF) [11]: 2.4%
ACR50 (NRI) [11]: 2.4%
ACR70 (LOCF) [11]: 0.0%
ACR70 (NRI) [11]: 0.0%
ACR20 (LOCF) [12]: 57.3%
ACR20 (NRI) [12]: 54.9%
ACR50 (LOCF) [12]: 25.6%
ACR50 (NRI) [12]: 26.8%
ACR70 (LOCF) [12]: 11.0%
ACR70 (NRI) [12]: 11.0%
ACR20 (LOCF) [13]: 57.3%
ACR20 (NRI) [13]: 54.9%
ACR50 (LOCF) [13]: 26.8%
ACR50 (NRI) [13]: 26.8%
ACR70 (LOCF) [13]: 11.0%
ACR70 (NRI) [13]: 11.0%
ACR20 (LOCF) [14]: 45.9%
ACR20 (NRI) [14]: 47.1%
ACR50 (LOCF) [14]: 20.0%
ACR50 (NRI) [14]: 20.0%
ACR70 (LOCF) [14]: 7.1%
ACR70 (NRI) [14]: 7.1%
ACR20 (LOCF) [15]: 48.2%
ACR20 (NRI) [15]: 47.1%
ACR50 (LOCF) [15]: 20.0%
ACR50 (NRI) [15]: 20.0%
ACR70 (LOCF) [15]: 7.1%
ACR70 (NRI) [15]: 7.1%
ACR20 (LOCF) [16]: 48.2%
ACR20 (NRI) [16]: 50.6%
ACR50 (LOCF) [16]: 32.9%
ACR50 (NRI) [16]: 32.9%
ACR70 (LOCF) [16]: 15.3%
ACR70 (NRI) [16]: 15.3%
ACR20 (LOCF) [17]: 51.8%
ACR20 (NRI) [17]: 51.8%
ACR50 (LOCF) [17]: 32.9%
ACR50 (NRI) [17]: 32.9%
ACR70 (LOCF) [17]: 15.3%
ACR70 (NRI) [17]: 15.3%
ACR20 (LOCF) [18]: 64.7%
ACR20 (NRI) [18]: 64.7%
ACR50 (LOCF) [18]: 35.3%
ACR50 (NRI) [18]: 35.3%
ACR70 (LOCF) [18]: 23.5%
ACR70 (NRI) [18]: 23.5%
ACR20 (LOCF) [19]: 63.5%
ACR20 (NRI) [19]: 62.4%
ACR50 (LOCF) [19]: 38.8%
ACR50 (NRI) [19]: 38.8%
